Read-outs that look alike come from different tables or passages of the source.
Key:
EGFR [1] = conditions: cited from earlier work
sarcoma 180 tumor cells = conditions: mice implanted with sarcoma 180 tumor cells; cited from earlier work
topoisomerases I = conditions: cited from earlier work
protein kinase C = test: Simultaneous protein kinase detection in SR-3Y1 lysate: protein kinase C bands; assay type: biochemical
protein kinase A = test: Simultaneous protein kinase detection in SR-3Y1 lysate: protein kinase A bands; assay type: biochemical
topoisomerases II = conditions: cited from earlier work
KDR/Flk-1 = KDR/Flk-1 (Homo sapiens, UniProt P35968); test: PTK activity in KDR/Flk-1-NIH3T3 cells; assay type: cell-based
v-Src [2] = molecular target: T1, v-Src (Rous sarcoma virus, UniProt P00524); test: PTK activity of immunopurified v-Src, 32P incorporation into Raytide; assay type: biochemical; conditions: for mode of inhibition of v-Src with respect to ATP: various ATP concentrations
[3] = molecular target: eukaryotic elongation factor-2 kinase, and calmodulin-dependent protein kinase III (Rattus norvegicus, UniProt P70531); test: Simultaneous protein kinase detection in SR-3Y1 lysate: eEF-2K, CaMK III bands; assay type: biochemical
PTK = assay type: biochemical; conditions: SR-3Y1 lysate
[4] = system: 37 lines of cancer cells derived from human solid tumors; test: Cell death in panel of 37 lines of cancer cells derived from human solid tumors; assay type: cell-based; conditions: 37 human solid tumor lines, 48 h
EGFR [5] = molecular target: EGFR (Homo sapiens, UniProt P00533); test: PTK; assay type: biochemical
SR-3Y1 cells = test: Cell-growth inhibition of SR-3Y1 cells; assay type: cell-based; conditions: SR3Y1, read-out: IC50 for cell-growth inhibition
Flt-1 = Flt-1 (Homo sapiens, UniProt P17948); test: PTK activity in Flt-1-overexpressing NIH3T3 cells; assay type: cell-based
[6] = molecular target: catalytic subunit of protein kinase A (Bos taurus, UniProt P00517); test: Activity of isolated catalytic subunit of protein kinase A; assay type: biochemical, bovine; conditions: treatment with as much as 100 M; results not shown
HL-60 cells = conditions: cited from earlier work
DMS114 = test: Cell death in human cancer cell line panel; assay type: cell-based; conditions: DMS114 lung cancer cells, 48 h
NCI-H522 = test: Cell death in human cancer cell line panel; assay type: cell-based; conditions: NCI-H522 lung cancer cells, 48 h
A431 cells = test: Cell-growth inhibition of carcinoma A431 cells; assay type: cell-based; conditions: Homo sapiens, A-431, read-out: IC50 for cell-growth inhibition
v-Src [7] = molecular target: T1, v-Src; conditions: cited from earlier work
[8] = system: receptor for fibroblast growth factor; conditions: ATP-binding site of the catalytic domain; cited from earlier work

T1 sequence (P00524 2-526): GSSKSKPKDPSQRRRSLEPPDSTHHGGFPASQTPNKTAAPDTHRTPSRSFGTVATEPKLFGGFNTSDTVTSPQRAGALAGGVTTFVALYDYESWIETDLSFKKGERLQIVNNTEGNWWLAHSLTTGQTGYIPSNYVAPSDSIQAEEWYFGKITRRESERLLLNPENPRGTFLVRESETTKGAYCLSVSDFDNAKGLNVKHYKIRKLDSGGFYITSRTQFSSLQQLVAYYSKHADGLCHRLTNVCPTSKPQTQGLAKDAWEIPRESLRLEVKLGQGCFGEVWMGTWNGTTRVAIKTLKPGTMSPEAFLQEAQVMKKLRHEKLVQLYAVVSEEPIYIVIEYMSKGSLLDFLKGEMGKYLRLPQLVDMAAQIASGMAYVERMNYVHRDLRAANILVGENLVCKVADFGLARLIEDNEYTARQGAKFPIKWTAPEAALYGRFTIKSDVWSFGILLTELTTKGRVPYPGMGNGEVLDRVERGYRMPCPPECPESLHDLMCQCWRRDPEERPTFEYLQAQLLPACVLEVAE
Chain of EGFR (Homo sapiens, UniProt P00533) (P00533 25-1210, looked up): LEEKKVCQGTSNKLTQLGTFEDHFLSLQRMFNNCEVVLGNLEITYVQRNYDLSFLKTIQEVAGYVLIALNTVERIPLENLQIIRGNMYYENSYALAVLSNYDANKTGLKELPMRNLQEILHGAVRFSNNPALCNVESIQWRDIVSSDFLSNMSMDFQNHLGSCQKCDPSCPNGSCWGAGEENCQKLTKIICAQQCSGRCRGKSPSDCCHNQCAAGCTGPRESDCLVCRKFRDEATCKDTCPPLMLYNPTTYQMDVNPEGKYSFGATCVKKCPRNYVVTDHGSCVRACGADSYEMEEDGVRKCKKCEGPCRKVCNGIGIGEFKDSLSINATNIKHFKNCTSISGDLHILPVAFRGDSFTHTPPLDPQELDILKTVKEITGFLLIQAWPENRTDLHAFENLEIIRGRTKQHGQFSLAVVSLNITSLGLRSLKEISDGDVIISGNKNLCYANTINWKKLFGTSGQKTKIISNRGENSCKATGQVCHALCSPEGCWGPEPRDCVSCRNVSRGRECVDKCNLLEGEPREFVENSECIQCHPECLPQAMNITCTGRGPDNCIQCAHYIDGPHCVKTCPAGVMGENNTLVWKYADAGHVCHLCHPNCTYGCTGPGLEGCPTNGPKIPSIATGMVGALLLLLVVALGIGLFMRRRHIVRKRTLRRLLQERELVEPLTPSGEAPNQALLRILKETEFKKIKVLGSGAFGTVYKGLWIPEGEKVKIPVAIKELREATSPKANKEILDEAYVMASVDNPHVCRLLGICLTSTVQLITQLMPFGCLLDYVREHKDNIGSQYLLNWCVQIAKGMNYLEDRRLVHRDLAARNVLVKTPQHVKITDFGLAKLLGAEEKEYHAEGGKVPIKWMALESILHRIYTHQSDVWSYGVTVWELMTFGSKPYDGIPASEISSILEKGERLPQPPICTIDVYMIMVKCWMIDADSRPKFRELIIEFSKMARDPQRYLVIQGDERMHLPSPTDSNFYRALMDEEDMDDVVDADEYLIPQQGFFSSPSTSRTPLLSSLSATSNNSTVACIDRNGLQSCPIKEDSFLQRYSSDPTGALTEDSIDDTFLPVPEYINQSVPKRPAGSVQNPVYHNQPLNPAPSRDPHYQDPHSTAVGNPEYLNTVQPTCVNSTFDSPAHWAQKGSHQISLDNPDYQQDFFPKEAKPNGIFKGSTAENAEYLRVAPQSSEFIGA
Chain of KDR/Flk-1 (P35968 20-1356): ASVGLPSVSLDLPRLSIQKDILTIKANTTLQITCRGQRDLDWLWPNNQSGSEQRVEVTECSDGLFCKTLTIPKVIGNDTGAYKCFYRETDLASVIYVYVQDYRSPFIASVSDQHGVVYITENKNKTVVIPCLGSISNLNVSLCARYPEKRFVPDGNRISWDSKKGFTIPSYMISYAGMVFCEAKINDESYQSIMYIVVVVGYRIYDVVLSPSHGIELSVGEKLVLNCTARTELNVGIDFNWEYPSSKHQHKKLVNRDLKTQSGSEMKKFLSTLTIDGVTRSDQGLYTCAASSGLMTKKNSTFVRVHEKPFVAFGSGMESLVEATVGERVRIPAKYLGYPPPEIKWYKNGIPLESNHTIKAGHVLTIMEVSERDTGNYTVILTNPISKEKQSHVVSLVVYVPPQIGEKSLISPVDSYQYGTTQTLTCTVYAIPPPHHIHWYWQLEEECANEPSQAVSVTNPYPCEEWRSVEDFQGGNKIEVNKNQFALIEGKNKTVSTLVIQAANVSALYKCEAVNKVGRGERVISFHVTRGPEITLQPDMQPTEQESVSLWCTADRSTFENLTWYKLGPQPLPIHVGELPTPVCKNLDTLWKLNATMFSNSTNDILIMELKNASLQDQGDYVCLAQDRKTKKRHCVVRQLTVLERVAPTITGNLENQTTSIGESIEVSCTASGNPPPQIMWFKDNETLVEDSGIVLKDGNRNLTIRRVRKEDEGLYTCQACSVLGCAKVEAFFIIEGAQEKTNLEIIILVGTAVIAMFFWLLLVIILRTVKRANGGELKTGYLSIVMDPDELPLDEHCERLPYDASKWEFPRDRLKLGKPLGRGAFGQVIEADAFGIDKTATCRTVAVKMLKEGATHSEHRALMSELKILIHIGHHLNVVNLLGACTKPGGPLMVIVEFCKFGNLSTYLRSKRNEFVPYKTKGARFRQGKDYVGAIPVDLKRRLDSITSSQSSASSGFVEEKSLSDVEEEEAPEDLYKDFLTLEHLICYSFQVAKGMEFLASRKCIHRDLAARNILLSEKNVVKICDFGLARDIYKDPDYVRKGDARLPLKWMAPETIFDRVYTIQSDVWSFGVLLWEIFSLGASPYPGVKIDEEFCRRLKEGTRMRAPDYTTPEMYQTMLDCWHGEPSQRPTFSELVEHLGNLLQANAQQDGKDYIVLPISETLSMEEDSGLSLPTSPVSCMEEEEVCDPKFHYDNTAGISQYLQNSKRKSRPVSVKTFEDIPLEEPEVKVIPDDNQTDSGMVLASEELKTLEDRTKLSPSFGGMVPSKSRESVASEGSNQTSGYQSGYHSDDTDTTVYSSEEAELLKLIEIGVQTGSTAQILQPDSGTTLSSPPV
Chain of eukaryotic elongation factor-2 kinase, and calmodulin-dependent protein kinase III (P70531 2-724): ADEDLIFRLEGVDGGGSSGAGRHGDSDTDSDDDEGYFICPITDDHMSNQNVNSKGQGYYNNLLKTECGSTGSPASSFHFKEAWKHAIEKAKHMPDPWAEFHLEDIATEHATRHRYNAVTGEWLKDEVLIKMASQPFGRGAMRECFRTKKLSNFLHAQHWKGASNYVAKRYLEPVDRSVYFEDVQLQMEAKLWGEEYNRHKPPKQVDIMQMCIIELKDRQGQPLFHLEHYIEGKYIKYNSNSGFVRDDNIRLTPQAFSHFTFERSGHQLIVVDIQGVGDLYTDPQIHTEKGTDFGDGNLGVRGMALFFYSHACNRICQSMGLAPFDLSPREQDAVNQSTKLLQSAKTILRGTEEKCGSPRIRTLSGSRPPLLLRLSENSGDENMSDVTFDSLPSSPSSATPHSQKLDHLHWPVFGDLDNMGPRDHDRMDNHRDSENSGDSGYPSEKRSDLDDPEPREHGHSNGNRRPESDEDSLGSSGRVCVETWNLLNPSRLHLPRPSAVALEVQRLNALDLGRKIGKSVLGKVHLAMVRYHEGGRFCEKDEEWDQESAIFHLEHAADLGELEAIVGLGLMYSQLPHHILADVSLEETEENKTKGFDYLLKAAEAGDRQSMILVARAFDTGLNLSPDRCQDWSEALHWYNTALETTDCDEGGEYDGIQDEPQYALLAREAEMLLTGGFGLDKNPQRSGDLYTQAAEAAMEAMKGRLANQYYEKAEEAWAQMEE
Chain of Flt-1 (P17948 27-1338, species assumed): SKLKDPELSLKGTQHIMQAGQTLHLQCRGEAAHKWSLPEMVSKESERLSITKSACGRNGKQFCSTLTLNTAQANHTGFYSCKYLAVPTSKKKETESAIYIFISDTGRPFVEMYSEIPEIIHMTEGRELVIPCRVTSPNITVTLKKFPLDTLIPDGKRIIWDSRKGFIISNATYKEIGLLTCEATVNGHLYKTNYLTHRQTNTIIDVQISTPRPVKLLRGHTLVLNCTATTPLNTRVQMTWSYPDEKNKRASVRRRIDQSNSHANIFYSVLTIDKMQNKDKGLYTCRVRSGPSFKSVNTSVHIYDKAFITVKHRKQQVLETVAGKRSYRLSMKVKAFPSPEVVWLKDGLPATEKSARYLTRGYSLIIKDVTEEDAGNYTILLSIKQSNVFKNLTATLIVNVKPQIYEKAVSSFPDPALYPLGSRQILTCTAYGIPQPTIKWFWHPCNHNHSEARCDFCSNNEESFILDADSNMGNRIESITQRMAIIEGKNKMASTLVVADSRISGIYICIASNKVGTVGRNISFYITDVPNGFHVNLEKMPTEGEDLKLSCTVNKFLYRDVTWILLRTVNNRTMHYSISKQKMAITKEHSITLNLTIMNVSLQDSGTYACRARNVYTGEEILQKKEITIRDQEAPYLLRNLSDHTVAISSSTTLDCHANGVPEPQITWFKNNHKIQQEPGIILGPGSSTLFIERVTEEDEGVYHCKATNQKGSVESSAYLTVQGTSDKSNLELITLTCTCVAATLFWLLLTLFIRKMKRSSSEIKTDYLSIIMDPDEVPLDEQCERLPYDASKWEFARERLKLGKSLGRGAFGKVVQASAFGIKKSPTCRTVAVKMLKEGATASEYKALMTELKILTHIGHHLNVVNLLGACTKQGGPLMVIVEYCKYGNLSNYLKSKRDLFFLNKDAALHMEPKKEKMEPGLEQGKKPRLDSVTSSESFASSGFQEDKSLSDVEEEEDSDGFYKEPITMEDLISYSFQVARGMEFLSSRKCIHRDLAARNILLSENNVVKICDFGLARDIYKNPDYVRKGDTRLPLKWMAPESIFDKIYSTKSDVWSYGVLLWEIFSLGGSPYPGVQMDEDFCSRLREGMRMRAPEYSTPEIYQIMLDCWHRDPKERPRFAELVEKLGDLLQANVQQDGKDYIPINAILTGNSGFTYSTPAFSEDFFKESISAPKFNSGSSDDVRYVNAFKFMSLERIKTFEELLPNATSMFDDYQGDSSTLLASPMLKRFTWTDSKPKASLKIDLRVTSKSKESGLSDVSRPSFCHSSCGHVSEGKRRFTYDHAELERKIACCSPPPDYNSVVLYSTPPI

Compound: O=CN/C=C/c1cc(O)ccc1O [erbstatin]
- mode of inhibition of PTK activity of EGFR with respect to ATP (EGFR [1]): competition with ATP

Compound: CC(C)=CC[C@@H](O)C1=CC(=O)c2c(O)ccc(O)c2C1=O [shikonin, reference compound]
- antitumor activity (sarcoma 180 tumor cells): exhibits antitumor activity
- inhibition of topoisomerase I activity (topoisomerases I): inhibit
- intensities of bands of proteins phosphorylated by protein kinase C (protein kinase C): not significantly altered
- intensities of bands of proteins phosphorylated by protein kinase A (protein kinase A): not significantly altered
- inhibition of topoisomerase II activity (topoisomerases II): inhibit
- inhibition of PTK activity of KDR/Flk-1 (in words) (KDR/Flk-1; KDR/Flk-1-NIH3T3 cells): inhibited significantly
- PTK activity of v-Src remaining in the presence of inhibitor (v-Src [2]; lowest level reached over concentrations tested (Fig. 5)): ≥ 50%
- intensities of bands of proteins phosphorylated by eEF-2 kinase and CaMK III [3]: not significantly altered
- intensities of bands of proteins phosphorylated by PTK (PTK): decreased markedly
- induction of cell death across the panel [4]: induced cell death in a wide variety of tumor cell lines
- IC50 for EGFR (EGFR [5]; EGFR isolated from A431 cells, estimated from Fig. 4B): impossible to estimate
- concentration required for inhibition of the PTK activity of EGFR (EGFR [5]; Fig. 4A): more than 10 M

Compound: CC(C)=CC[C@@H](OC(=O)CC(C)(C)O)C1=CC(=O)c2c(O)ccc(O)c2C1=O [β‐HIVS, β‐Hydroxyisovalerylshikonin]
- IC50 (SR-3Y1 cells): ~1.2 µM
- IC50 (Flt-1): > 5 µM
- change in activity of catalytic subunit of protein kinase A [6]: practically no change
- induction of apoptosis (HL-60 cells): induced apoptosis
- intensities of bands of proteins phosphorylated by protein kinase C (protein kinase C): not significantly altered
- intensities of bands of proteins phosphorylated by protein kinase A (protein kinase A): not significantly altered
- induction of cell-death (DMS114): efficiently induced cell-death
- induction of cell-death (NCI-H522): efficiently induced cell-death
- IC50 (KDR/Flk-1): ~2.5 µM
- concentration needed to inhibit the tyrosine kinase activity of KDR/Flk-1 (KDR/Flk-1; KDR/Flk-1-NIH3T3 cells): more than 1 M
- inhibition of PTK activity of KDR/Flk-1 (in words) (KDR/Flk-1; KDR/Flk-1-NIH3T3 cells): weakly inhibited
- inhibition of PTK activity of KDR/Flk-1 (in words) (KDR/Flk-1; KDR/Flk-1-NIH3T3 cells, listed as -HIVS): inhibited significantly
- IC50 (v-Src [2]): ~1 µM
- inhibition of tyrosine kinase activity of v-Src (in words) (v-Src [2]): strongly inhibited
- mode of inhibition of v-Src with respect to ATP (v-Src [2]; Lineweaver-Burk, 1 and 10 M inhibitor): non‐competitive
- mode of inhibition of v-Src with respect to ATP (v-Src [2]; Lineweaver-Burk, 1 and 10 M inhibitor, listed as -HIVS): did not compete with ATP
- mode of inhibition of v-Src with respect to substrate Raytide (v-Src [2]; Lineweaver-Burk, various Raytide concentrations, 1 and 10 M inhibitor): competitively inhibited
- intensities of bands of proteins phosphorylated by eEF-2 kinase and CaMK III [3]: not significantly altered
- IC50 (A431 cells): ~11 µM
- intensities of bands of proteins phosphorylated by PTK (PTK): decreased markedly
- IC50 (EGFR [5]): ~0.7 µM
- inhibition of tyrosine kinase activity of EGFR (in words) (EGFR [5]): strongly inhibited
- inhibition of tyrosine phosphorylation of EGFR (EGFR [5]): evident

Compound: CNc1cc2c(Nc3cccc(Br)c3)ncnc2cn1 [PD158780, 4‐[(3‐bromophenyl)amino]‐6‐(methylamino)‐pyrido[3,4‐d]pyrimidine]
- mode of inhibition of PTK activity of EGFR with respect to ATP (EGFR [1]): competition with ATP

Compound: O=C(O)c1cc(N(Cc2ccccc2O)Cc2cc(O)ccc2O)ccc1O [lavendastin-A]
- mode of inhibition of PTK activity of EGFR with respect to ATP (EGFR [1]): competition with ATP

Compound: O=c1c(-c2ccc(O)cc2)coc2cc(O)cc(O)c12 [genistein]
- mode of inhibition of PTK activity of EGFR with respect to ATP (EGFR [1]): competition with ATP

Compound: O=c1c(O)c(-c2ccc(O)c(O)c2)oc2cc(O)cc(O)c12 [quercetin]
- mode of inhibition of v-Src with respect to ATP (v-Src [7]): competition with ATP
- IC50 (v-Src [7]; read-out: IC50 on v-Src): 3 µM

Compound: Cc1[nH]c(/C=C2\C(=O)Nc3ccccc32)c(C)c1CCC(=O)O [SU6668]
- mode of inhibition of receptor for fibroblast growth factor with respect to ATP [8]: compete with ATP
